Key:
BRD4 BD1 = target: T1, BRD4 BD1 (Homo sapiens, UniProt O60885); assay: BRD4 BD1 Fluorescence Polarization (FP) competition binding assay; conditions: BRD4 BD1 40 nM, probe PFI-411FP 2 nM
T1 construct: His-tagged BRD4 BD1 (44-160); made in house
Protocol: Compound binding to BRD4 BD1 was assessed with a FP competition binding assay. […] All assay components were diluted in 50 mM HEPES pH 7.4 containing 0.08% bovine serum albumin (assay buffer). To start the assay, 8 μL of BRD4 BD1 was added to each well of a low volume 384-well black flat bottom microtiter plate (Corning 3820) containing 4 μl of various concentrations of test compound (each plate also contained positive and negative control wells to define the upper and lower limits of the assay signal). After addition of BRD4 BD1, the assay plate was incubated at room temperature (RT, 20° C.). After 15 minutes, 4 μL of PFI-411FP was added to each well and the assay plate was placed in the dark at RT. The final assay concentration (FAC) of PFI-411FP was 2 nM, the FAC of BRD4 BD1 was 40 nM, the FAC of test compound ranged from 120 to 0.0012 μM and the FAC of DMSO was 0.4%. After 60 min, polarization values were measured with an Envision 2103 multilabel reader (Perkin Elmer) using a Cy5 dual enhanced mirror and excitation at 620 nm and emission at 688 nm. The percent (%) effect was calculated for each concentration of test compound and was relative to the amount of polarization signal produced by the positive and negative control wells contained within each assay plate. The concentrations and % effect values for test compounds were plotted versus each other with a proprietary curve fitting program using a four-parameter logistic dose response equation and the concentration of compound required for 50% effect (IC50) was determined. The Ki values of competitive inhibitors were calculated using the equation described by Nikolovska-Coleska et al. (Development and optimization of a binding assay for the XIAP BIR3 domain using fluorescence polarization. Analytical Biochemistry (2004) 332: 261-273).

[1] = tested on: LPS-induced IL-6 production in human whole blood; assay: IL-6 human whole blood (HWB) assay, LPS-stimulated, HTRF detection; type: cell-based; conditions: 1 ng/ml LPS, 4 hours
Protocol: Compound effect on IL-6 production was determined using lipopolysaccharide (LPS)-stimulated human whole blood and an HTRF (Homogeneous Time-Resolved Fluorescence) IL-6 detection kit (Human IL6 HTRF Assay CisBio 62IL6PEC). HWB was collected by venous puncture from healthy donors, transferred to a 50 ml polypropylene tube containing sodium heparin (14.3 units per mL of HWB) and then placed in a 37° C. water bath until use. To start the assay, 80 μL of heparin-treated HWB containing 1 ng/ml of LPS (equivalent to LPS ˜EC80 with regard to stimulation of IL-6 production in HWB under these assay conditions) was added to each well of a 384-well, sterile, endotoxin-free, polypropylene plate (Greiner 781281) containing 160 nL of various concentrations of test compound (each plate also contained positive and negative control wells to define the upper and lower limits of the assay signal). The plate was then placed in a thermoshaker incubator set to 370C (Boekel 270440). The final assay concentration (FAC) of test compound ranged from 60 to 0.0006 μM and the FAC of DMSO was 0.2%. After 4 hours, the assay plate was removed from the incubator and centrifuged at 700×g for 10 minutes. 5 μL of the resulting upper plasma layer was removed from each well and diluted 1:2 with 1×Dulbecco's phosphate buffered saline (DPBS). 5 μL of this diluted plasma was then transferred to a white 384-well low volume assay plate (Greiner 784080) containing 5 μL of combined anti-IL-6-Cryptate and anti-IL-6-XL665 detection antibodies (per manufacturer's protocol). The plate was then sealed with a Top Seal (Perkin Elmer 6005185) and incubated at room temperature (RT, 20° C.). After 16-18 hrs (overnight), the HTRF assay signal was read on an Envision 2103 plate reader using a Lance Delfia Dual/Bias mirror TRF laser excitation and emission was measured at 665 nm and 615 nm respectively. The percent (%) effect was calculated for each concentration of test compound and was relative to the amount of HTRF signal produced by the positive and negative control wells contained within each assay plate. The concentrations and % effect values for test compounds were plotted versus each other with a proprietary curve fitting program using a four-parameter logistic dose response equation and the concentration of compound required for 50% effect (IC50) was determined.

MM1.S cells = assay: MM1.S cell proliferation assay (CellTiter-Glo); type: cell-based; conditions: for IC50: MM1.S, CTG at 96h; for inhibition of proliferation of MM1.S cells: dose dependent manner, FIG. 1.A
Protocol: (§1) MM1.S (dexamethasone sensitive) and OPM-2 cells were purchased from ATCC and maintained in RPMI-1640 medium with 10% fetal bovine serum at 37 degrees, 5% CO2. Cells were seeded at 10,000 cells/well in 100 uL medium. The following day compounds or control vehicle (DMSO) were added at indicated concentrations in 10 ul volume. Compound treated OPM-2 cells and MM1.S cell were analyzed for cell density at 72h and 96h, respectively, using CellTiter-Glo® (CTG) reagent (Promega). The CTG assay measures the amount of ATP present, which indicates the number of viable cells in culture.

DU-145 cells, AR(−) = assay: CRPC cell proliferation assay (CellTiter-Glo), DU-145; type: cell-based; conditions: CTG at 96h
Protocol: (§2) Castrate-Resistant Prostate Cancer (CRPC) Cell Proliferation Assay • Cells were seeded into 96-well plates at 2,000-10,000 cells/well in 100 uL medium. Four AR(+) cell lines (LnCaP, C4-2 (parental), C4-2AR-WT and C4-2AR—F876L) and one AR(−) cell line (DU-145) were studied. Compound treated cells were analyzed for cell density at 96h, using CellTiter-Glo® (CTG) reagent (Promega).

[2] = tested on: C4-2 (parental) cells, AR(+); assay: CRPC cell proliferation assay (CellTiter-Glo), C4-2; type: cell-based; conditions: CTG at 96h
Protocol: as §2

LnCaP cells, AR(+) = assay: CRPC cell proliferation assay (CellTiter-Glo), LnCaP; type: cell-based; conditions: CTG at 96h
Protocol: as §2

[3] = tested on: C4-2AR-F876L cells, AR(+); assay: CRPC cell proliferation assay (CellTiter-Glo), C4-2AR-F876L; type: cell-based; conditions: CTG at 96h
Protocol: as §2

C4-2AR-WT cells, AR(+) = assay: CRPC cell proliferation assay (CellTiter-Glo), C4-2AR-WT; type: cell-based; conditions: CTG at 96h
Protocol: as §2

OPM-2 cells = assay: OPM-2 cell proliferation assay (CellTiter-Glo); type: cell-based; conditions: for IC50: OPM-2, CTG at 72h; for inhibition of proliferation of OPM-2 cells: dose dependent manner, FIG. 1.B
Protocol: as §1

HCC2429 cells = assay: NMC HCC2429 cell proliferation assay (CellTiter-Glo); type: cell-based; conditions: Homo sapiens; HCC2429, CTG at 96h
Protocol: NMC HCC2429 Cell Proliferation Assay • HCC2429 cells were plated into a 96-well plate (10,000 cells/well). Compounds or control vehicle (DMSO) were added at indicated concentrations. Compound-treated HCC2429 cells were analyzed for cell density at 96h using CellTiter-Glo® (CTG) reagent (Promega).

[4] = tested on: MYC, SOX2, involucrin and Keratin 14 expression in HCC2429 cells; assay: Biomarker analysis in HCC2429 cells (RT-PCR, Western blot); type: cell-based
Protocol: HCC2429 cells were plated into a 6-well plate (250,000 cells/well). Cells were treated with compounds or control vehicle (DMSO) at the indicated concentrations for 72 hrs. Cells were collected, washed in PBS, and split for western blot and RNA analysis.

[5] = HCC2429, Western blot, 72 hrs, concentration-dependent

| SMILES | IC50 (BRD4 BD1) | IC50 [1] | also measured |
| --- | --- | --- | --- |
| CC[C@@H](c1ncccn1)n1c(=O)c(NCCC(=O)O)nc2ccc(-c3c(C)noc3C)nc21 [Example 45, N-{6-(3,5-dimethyl-1,2-oxazol-4-yl)-3-oxo-4-[(1S)-1-(pyrimidin-2-yl)propyl]-3,4-dihydropyrido[2,3-b]pyrazin-2-yl}-beta-alanine] | 325 nM | 8440 nM |  |
| CC[C@@H](COC)n1c(=O)c(NCCC(=O)O)nc2ccc(-c3c(C)noc3C)nc21 [Example 46, N-{6-(3,5-dimethyl-1,2-oxazol-4-yl)-4-[(2S)-1-methoxybutan-2-yl]-3-oxo-3,4-dihydropyrido[2,3-b]pyrazin-2-yl}-beta-alanine] | 355 nM | 6220 nM |  |
| CC[C@H](COC)n1c(=O)c(NCCC(=O)O)nc2ccc(-c3c(C)noc3C)nc21 [Example 47, N-{6-(3,5-dimethyl-1,2-oxazol-4-yl)-4-[(2R)-1-methoxybutan-2-yl]-3-oxo-3,4-dihydropyrido[2,3-b]pyrazin-2-yl}-beta-alanine] | 194 nM | 6160 nM | IC50 (MM1.S cells; Homo sapiens): 39 nM; inhibition of proliferation of MM1.S cells (MM1.S cells): inhibited proliferation; Max % Inh (DU-145 cells, AR(−)): 43%; IC50 (DU-145 cells, AR(−); Homo sapiens): > 5000 nM; IC50 [2]: > 5000 nM; Max % Inh [2]: 80%; Max % Inh (LnCaP cells, AR(+)): 62%; IC50 (LnCaP cells, AR(+); Homo sapiens): > 5000 nM; IC50 [3]: > 5000 nM; Max % Inh [3]: 81%; IC50 (C4-2AR-WT cells, AR(+)): > 5000 nM; Max % Inh (C4-2AR-WT cells, AR(+)): 82%; IC50 (OPM-2 cells; Homo sapiens): 160 nM; inhibition of proliferation of OPM-2 cells (OPM-2 cells): inhibited proliferation |
| COCC(COC)n1c(=O)c(NCCC(=O)O)nc2ccc(-c3c(C)noc3C)nc21 [Example 48, N-[4-(1,3-dimethoxypropan-2-yl)-6-(3,5-dimethyl-1,2-oxazol-4-yl)-3-oxo-3,4-dihydropyrido[2,3-b]pyrazin-2-yl]-beta-alanine] | 465 nM | 15100 nM |  |
| Cc1noc(C)c1-c1ccc2nc(NCCC(=O)O)c(=O)n([C@@H](C)C3CCCCC3)c2n1 [Example 55, N-{4-[(1S)-1-cyclohexylethyl]-6-(3,5-dimethyl-1,2-oxazol-4-yl)-3-oxo-3,4-dihydropyrido[2,3-b]pyrazin-2-yl}-beta-alanine] | 130 nM | 11400 nM |  |
| CCC(CC)n1c(=O)c(NCCC(=O)O)nc2ccc(-c3c(C)noc3C)nc21 [Example 56, N-[6-(3,5-dimethyl-1,2-oxazol-4-yl)-3-oxo-4-(pentan-3-yl)-3,4-dihydropyrido[2,3-b]pyrazin-2-yl]-beta-alanine] | 346 nM | 11900 nM |  |
| CCNC(=O)C[C@@H]1N=C(c2ccc(Cl)cc2)c2cc(OC)ccc2-n2c(C)nnc21 [IBET-762] |  |  | IC50 (HCC2429 cells): 85 nM; IC50 (MM1.S cells; Homo sapiens): 12 nM; inhibition of proliferation of MM1.S cells (MM1.S cells): inhibited proliferation; mRNA expression of involucrin ([4]; HCC2429, RT-PCR, 72 hours, 50 nM, 200 nM and 500 nM, dose dependent): increased; MYC protein level [4, 5]: down-regulated; SOX2 protein level [4, 5]: down-regulated; IC50 (OPM-2 cells; Homo sapiens): 30 nM; inhibition of proliferation of OPM-2 cells (OPM-2 cells): inhibited proliferation |
| Cc1sc2c(c1C)C(c1ccc(Cl)cc1)=N[C@@H](CC(=O)OC(C)(C)C)c1nnc(C)n1-2 [JQ1(−)] |  |  | IC50 (MM1.S cells): > 1000 nM; IC50 (OPM-2 cells): > 1000 nM |

Now from value to compound, other results behind:

| IC50 (BRD4 BD1) | IC50 [1] | SMILES | also measured |
| --- | --- | --- | --- |
| 235 nM | 32000 nM | Cc1noc(C)c1-c1ccc2nc(NCCC(=O)NS(C)(=O)=O)c(=O)n([C@@H](C)c3ccccc3)c2n1 [Example 50, N^3-{6-(3,5-dimethyl-1,2-oxazol-4-yl)-3-oxo-4-[(1S)-1-phenylethyl]-3,4-dihydropyrido[2,3-b]pyrazin-2-yl}-N-(methylsulfonyl)-beta-alaninamide] |  |
| 294 nM | 63700 nM | Cc1noc(C)c1-c1ccc2nc(NCCc3nnn[nH]3)c(=O)n([C@@H](C)c3ccccc3)c2n1 [Example 51, 6-(3,5-dimethyl-1,2-oxazol-4-yl)-4-[(1S)-1-phenylethyl]-2-{[2-(1H-tetrazol-5-yl)ethyl]amino}pyrido[2,3-b]pyrazin-3(4H)-one] |  |
| 62.7 nM | 1090 nM | CCC[C@@H](c1ccccc1)n1c(=O)c(NCCC(=O)O)nc2ccc(-c3c(C)noc3C)nc21 [Example 52, N-{6-(3,5-dimethyl-1,2-oxazol-4-yl)-3-oxo-4-[(1S)-1-phenylbutyl]-3,4-dihydropyrido[2,3-b]pyrazin-2-yl}-beta-alanine] |  |
| 125 nM | 9260 nM | Cc1noc(C)c1-c1ccc2nc(NCCC(=O)O)c(=O)n([C@H](c3ccccc3)C(C)C)c2n1 [Example 53, N-{6-(3,5-dimethyl-1,2-oxazol-4-yl)-4-[(1S)-2-methyl-1-phenylpropyl]-3-oxo-3,4-dihydropyrido[2,3-b]pyrazin-2-yl}-beta-alanine] |  |
| 99.4 nM | 2640 nM | Cc1noc(C)c1-c1ccc2nc(NCCC(=O)O)c(=O)n([C@H](c3ccccn3)C(C)C)c2n1 [Example 54, N-{6-(3,5-dimethyl-1,2-oxazol-4-yl)-4-[(1S)-2-methyl-1-(pyridin-2-yl)propyl]-3-oxo-3,4-dihydropyrido[2,3-b]pyrazin-2-yl}-beta-alanine] |  |
| 159 nM | 919 nM | CNC(=O)CNc1nc2ccc(-c3c(C)noc3C)nc2n([C@@H](C)c2ccccc2OC)c1=O [Example 57, N^2-{6-(3,5-dimethyl-1,2-oxazol-4-yl)-4-[(1S)-1-(2-methoxyphenyl)ethyl]-3-oxo-3,4-dihydropyrido[2,3-b]pyrazin-2-yl}-N-methylglycinamide] |  |

Source: patent US20160368919A1, “NOVEL PYRIDINE PYRAZINONES AS BET-FAMILY BROMODOMAIN INHIBITORS” (Pfizer Inc., priority 2015, published 2016)
